BigSolDB 2.1

Compound: c1ccc2c(c1)sc1ccccc12
- solubility (mole fraction) (in acetonitrile, 278.15 K): 0.00454
- solubility (mole fraction) (in acetonitrile, 283.15 K): 0.00611
- solubility (mole fraction) (in acetonitrile, 288.15 K): 0.00845
- solubility (mole fraction) (in acetonitrile, 293.15 K): 0.0128
- solubility (mole fraction) (in acetonitrile, 298.15 K): 0.0157
- solubility (mole fraction) (in acetonitrile, 303.15 K): 0.0189
- solubility (mole fraction) (in acetonitrile, 308.15 K): 0.0241
- solubility (mole fraction) (in acetonitrile, 313.15 K): 0.0321
- solubility (mole fraction) (in acetonitrile, 318.15 K): 0.0402
- solubility (mole fraction) (in acetonitrile, 323.15 K): 0.0506
- solubility (mole fraction) (in acetonitrile, 328.15 K): 0.0639
- solubility (mole fraction) (in ethanol, 278.15 K): 0.00347
- solubility (mole fraction) (in ethanol, 283.15 K): 0.00433
- solubility (mole fraction) (in ethanol, 288.15 K): 0.00529
- solubility (mole fraction) (in ethanol, 293.15 K): 0.00619
- solubility (mole fraction) (in ethanol, 298.15 K): 0.0075
- solubility (mole fraction) (in ethanol, 303.15 K): 0.00919
- solubility (mole fraction) (in ethanol, 308.15 K): 0.0105
- solubility (mole fraction) (in ethanol, 313.15 K): 0.0127
- solubility (mole fraction) (in ethanol, 318.15 K): 0.0148
- solubility (mole fraction) (in ethanol, 323.15 K): 0.0174
- solubility (mole fraction) (in ethanol, 328.15 K): 0.0206
- solubility (mole fraction) (in formic acid, 278.15 K): 0.000475
- solubility (mole fraction) (in formic acid, 283.15 K): 0.000578
- solubility (mole fraction) (in formic acid, 288.15 K): 0.000668
- solubility (mole fraction) (in formic acid, 293.15 K): 0.000756
- solubility (mole fraction) (in formic acid, 298.15 K): 0.000881
- solubility (mole fraction) (in formic acid, 303.15 K): 0.000995
- solubility (mole fraction) (in formic acid, 308.15 K): 0.00112
- solubility (mole fraction) (in formic acid, 313.15 K): 0.00126
- solubility (mole fraction) (in formic acid, 318.15 K): 0.0014
- solubility (mole fraction) (in formic acid, 323.15 K): 0.00157
- solubility (mole fraction) (in formic acid, 328.15 K): 0.00177
- solubility (mole fraction) (in isopropanol, 278.15 K): 0.00245
- solubility (mole fraction) (in isopropanol, 283.15 K): 0.00347
- solubility (mole fraction) (in isopropanol, 288.15 K): 0.00436
- solubility (mole fraction) (in isopropanol, 293.15 K): 0.00577
- solubility (mole fraction) (in isopropanol, 298.15 K): 0.00703
- solubility (mole fraction) (in isopropanol, 303.15 K): 0.00874
- solubility (mole fraction) (in isopropanol, 308.15 K): 0.0111
- solubility (mole fraction) (in isopropanol, 313.15 K): 0.0136
- solubility (mole fraction) (in isopropanol, 318.15 K): 0.0162
- solubility (mole fraction) (in isopropanol, 323.15 K): 0.0202
- solubility (mole fraction) (in isopropanol, 328.15 K): 0.0249
- solubility (mole fraction) (in methanol, 278.15 K): 0.00126
- solubility (mole fraction) (in methanol, 283.15 K): 0.00163
- solubility (mole fraction) (in methanol, 288.15 K): 0.00192
- solubility (mole fraction) (in methanol, 293.15 K): 0.00242
- solubility (mole fraction) (in methanol, 298.15 K): 0.0029
- solubility (mole fraction) (in methanol, 303.15 K): 0.00331
- solubility (mole fraction) (in methanol, 308.15 K): 0.00406
- solubility (mole fraction) (in methanol, 313.15 K): 0.00478
- solubility (mole fraction) (in methanol, 318.15 K): 0.00573
- solubility (mole fraction) (in methanol, 323.15 K): 0.00668
- solubility (mole fraction) (in methanol, 328.15 K): 0.00795
- solubility (mole fraction) (in n-butanol, 278.15 K): 0.00485
- solubility (mole fraction) (in n-butanol, 283.15 K): 0.00621
- solubility (mole fraction) (in n-butanol, 288.15 K): 0.00788
- solubility (mole fraction) (in n-butanol, 293.15 K): 0.00999
- solubility (mole fraction) (in n-butanol, 298.15 K): 0.0132
- solubility (mole fraction) (in n-butanol, 303.15 K): 0.016
- solubility (mole fraction) (in n-butanol, 308.15 K): 0.0192
- solubility (mole fraction) (in n-butanol, 313.15 K): 0.0242
- solubility (mole fraction) (in n-butanol, 318.15 K): 0.0303
- solubility (mole fraction) (in n-butanol, 323.15 K): 0.0381
- solubility (mole fraction) (in n-butanol, 328.15 K): 0.0458
